Values of other authors, collected in patent publication US7507425B2, “Method for the treatment of cachexia” (The Quigley Corporation, priority 2005, dated 2009).

Tested on: nitric oxide synthase (NOS)
Details: Northern-blot and immunoblotting; macrophages activated with vs without curcumin

In the case of `COc1cc(/C=C/C(=O)CC(=O)/C=C/c2ccc(O)c(OC)c2)ccc1O` [curcumin], the “levels of mRNA and 130-k Da protein of inducible NOS” value is given as “significantly reduced levels”.
